The source of these data is paper PMC11636681, “Pharmacokinetics and pharmacodynamics of antibacterial peptide NZX in Staphylococcus aureus mastitis mouse model” (Applied Microbiology and Biotechnology, 2024).

As a reminder, the pEC50 is the negative decadic logarithm of the EC50, by convention in mol/L. Higher therefore signals a small EC50.

pEC50: −log10 of the molar value. Marks after values point to notes of the source that are not given here. Positions of bridges follow the written chain, without caps; N, C: chain ends. Residues, ends and D or L forms follow the SMILES beside them.

Series [1] in a line: Stability of NZX in mammary gland tissue homogenate. The format is in vitro ADME. To be noted: mouse, 100 μg/mL in mammary gland tissue homogenate, 37 °C, SPE then HPLC–UV 280 nm, mean peak area / initial value, read-out: residual amount of NZX in mammary tissue homogenate. The procedure:
(§1) A 0.5 g of mammary tissue or milk were weighed, homogenized, and transferred to a 10 mL polypropylene centrifuge tube, respectively, extracted sequentially by adding into a 3 mL of 0.1 M of McFarland buffer and 1% trichloroacetic acid (TCA), and cleaned by a C18 solid-phase extraction (SPE) cartridge (Oasis MAX 3 cc 60 mg and Oasis HLB 3 cc 60 mg, respectively, Waters, USA). Afterwards, a 2 mL of 45% acetonitrile with 2% formic acid and 3 mL of 45% acetonitrile were used to elute the columns, respectively, the collected eluents were freeze-dried and dissolved in 200 µL of deionized water and filtered by a […] sterile filter membrane before the analysis of high-performance liquid chromatography-ultraviolet (HPLC–UV). The HPLC–UV with a C18 reverse-phase column (ZORBAX Eclipse Plus C18 4.6 mm × 250 mm, 5 µm) conditions for detecting NZX were as follows: the mobile phase consisted of A: 0.1% trifluoroacetate […] in acetonitrile and B: 0.1%TFA in water; the injection volume was 40 μL; the wavelength of UV detector was 280 nm; flow rate was 1.0 mL/min; the column temperature was 35 °C, and the elution was conducted with a linear gradient of 20–45% mobile phase A for 16 min. The linear relationship, limits of detection (LOD), limits of quantitation (LOQ), accuracy and precision were determined by adding the known concentrations of NZX into the extracted blank matrix of mammary gland. Each concentration was conducted three times.
(§2) A 100 μg/mL of NZX was suspended in mammary gland tissue homogenate or milk, respectively, and then incubated at 37 °C for 0, 8, 16 and 24 h, respectively. Afterwards, samples were pretreated and quantified as the above methods. The results were expressed as a ratio of the mean peak area measured at different times divided by the mean value of the initial value.

Another series can be described thus: Stability of NZX in milk. The format is in vitro ADME. To be noted: 100 μg/mL in milk, 37 °C, SPE then HPLC–UV 280 nm, mean peak area / initial value, read-out: retention rate in milk. On the procedure: as §1, §2
Series [2] can be described thus: Pharmacokinetics in mouse mammary gland after intramammary administration. The format is in vivo. The procedure:
as §1
A pharmacokinetic assessment of a single dose of NZX at 100 μg/gland was carried out using 36 individual healthy lactating mice following intramammary administration (Wang et al. [2021]). Mammary tissues were harvested at 0.083, 0.5, 1, 2, 3, 4, 6, 9, 12, 16, 20 and 24 h with three mice (six mammary in total) at each time point. The collected samples were then placed into 2 mL eppendorf tubes and stored at − 80 °C before the content determination of NZX in mammary gland by HPLC–UV. Briefly, a portion of the mammary gland tissues (0.5 g) was weighed in 2 mL eppendorf tubes, homogenized for 20 min (50 HZ and 4 °C) in 0.5 mL of PBS solution, and pretreated and purified by a MAX cartridge as described above. The pharmacokinetic parameters of NZX in mammary gland tissues were calculated by non-compartmental model using WinNonlin Phoenix version 8.1 (Pharsight Co., Mountain View, CA, USA).

Another series has as its system S. aureus E48. To be noted: 1 × 10^5 CFU/mL, 16–18 h, 37 °C, value marked a, already published, ref Zheng et al. [2022]; cited from earlier work. The text has this: Table 1 The MICs, MBCs and MPCs of NZX and antibiotics against S. aureus strains (μM) | column: S. aureus E48 / MIC
The test system of series [3] is S. aureus ATCC 43300. Particulars: 1 × 10^5 CFU/mL, 16–18 h, 37 °C, value marked a, already published, ref Zheng et al. [2022]; cited from earlier work. The text has this:
Table 1 The MICs, MBCs and MPCs of NZX and antibiotics against S. aureus strains (μM) | column: S. aureus ATCC 43300 / MIC

The test system of series [4] is S. aureus ATCC 43300. Kind of series: In vitro dose-killing curves (24 h). The series is classed as cell-based, Staphylococcus aureus. On the procedure: The in vitro dose-killing curves of NZX against the test S. aureus strains were conducted as previous described (Brinch et al. [2010]), with some modification. The S. aureus cells in mid-log phage were diluted. Then, the killing curves of NZX against S. aureus strains were carried out in the 48-well plate. Specifically, a volume of 50 μL NZX (0.6–150 μM) was mixed with 450 μL of the above diluted bacterial suspension (5 × 10^5 CFU/mL), and the mixtures were incubated in the Micro Oscillator for 24 h (600 rpm, 37 °C). Subsequently, the bacteria suspensions were plated on MHA medium to count. Lincomycin and ceftiofur were set as antibiotic controls, respectively. PBS was negative control. Results were expressed as the average of three independent experiments data.

[5] abbreviates: mouse mammary tissue, single 100 μg/gland intramammary, healthy lactating mice, HPLC–UV, non-compartmental model.

On to `CC[C@H](C)[C@@H]1NC(=O)[C@H](CO)NC(=O)[C@H](CCCCN)NC(=O)[C@@H]2CSSC[C@@H](C(=O)N[C@@H](Cc3ccc(O)cc3)C(=O)O)NC(=O)[C@H](CCCCN)NC(=O)[C@@H]3CSSC[C@H](NC(=O)[C@H](CCC(N)=O)NC(=O)[C@H]([C@@H](C)CC)NC(=O)[C@H](CC(=O)O)NC(=O)[C@H](CC(=O)O)NC(=O)[C@H](CCC(=O)O)NC(=O)[C@H](CO)NC(=O)[C@H](Cc4c[nH]c5ccccc45)NC(=O)[C@@H]4CCCN4C(=O)CNC(=O)[C@H](CC(N)=O)NC(=O)[C@@H](NC(=O)CNC(=O)[C@H](Cc4ccccc4)NC(=O)CN)CSSC[C@H](NC(=O)[C@H](Cc4ccc(O)cc4)NC(=O)CNC(=O)CNC(=O)[C@H](CCCCN)NC(=O)[C@H](Cc4ccc(O)cc4)NC(=O)CNC(=O)[C@H](CCCCN)NC1=O)C(=O)N[C@@H](C)C(=O)N[C@@H](CCCNC(=N)N)C(=O)NCC(=O)NCC(=O)N[C@@H](Cc1ccccc1)C(=O)N[C@@H](C(C)C)C(=O)N3)C(=O)N[C@@H](Cc1c[nH]cn1)C(=O)N[C@@H](CC(N)=O)C(=O)N[C@@H](Cc1c[nH]cn1)C(=O)N2` [NZX] (H-GFGCNGPWSEDDIQCHNHCKSIKGYKGGYCARGGFVCKCY-OH; disulfide 4-30, 15-37, 19-39; N-terminus and C-terminus assumed), for which the results for the remaining at 8 h, 100 μg/mL (in series [1] (8 h); in “Stability of NZX in milk” (8 h)) were 72.2% and 103%, respectively. In addition, the remaining at 16 h, 100 μg/mL in series [1] (16 h) turned out to be 48.4%; in “Stability of NZX in milk” (16 h), 91.8%. The remaining at 24 h, 100 μg/mL amounted to 47.9% in series [1] (24 h) and 85.4% in the series “Stability of NZX in milk” (24 h). Besides, in series [2] (setting [5]), the “AUC, area under the concentration time curve from time 0 to 24 h” value turned out to be 391 µg·h/g. The “Cmax, peak concentration” value in series [2] (setting [5]) was determined as 32.49 µg/g. Besides, the “Tmax, peak time” value in series [2] (setting [5]) is reported as 0.5 h. The “T1/2, terminal elimination half-life” value in series [2] (mouse mammary tissue, single 100 μg/gland intramammary, healthy lactating mice, HPLC–UV, non-compartmental model, three mice (six glands) per time point) was determined as 35.11 h. For the same molecule, the “tissue distribution after administration by milk duct” value in series [2] (mouse, no detection in serum and organs (data not shown)) was “only distributed into mammary gland tissues”. For the same molecule, the MIC in the series on S. aureus E48 and in the series on S. aureus ATCC 43300 [3] was 0.23^a μM throughout.
`CO/N=C(\C(=O)N[C@@H]1C(=O)N2C(C(=O)O)=C(CSC(=O)c3ccco3)CS[C@H]12)c1csc(N)n1` [Ceftiofur] showed a negative-log EC50 (pEC50) in the series with S. aureus ATCC 43300 [4] (Staphylococcus aureus, ATCC43300, 50% reduction in Log10 CFU at 24 h between minimum and maximum) of 6.04. In the series on S. aureus ATCC 43300 [4] (concentration causing no apparent growth in Log10 CFU at 24 h vs initial inoculum), the Cs amounted to 0.91 µM.
